Measurements taken from patent publication US10363239B2, “Method for inhibiting growth of cancer cells” (Pain Therapeutics, Inc., priority 2013, dated 2019).

Test system: mu opiate receptor (MOR)
Assay: MOR agonist activity using [35S]GTPγS binding assay in striatal membranes
Type: biochemical
Conditions: Series B; 0.1 μM compound, relative to DAMGO
How it was run: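 Striatal membranes (200 μg) were preincubated 5 min at 30 °C in HEPES pH 7.5 with 100 mM NaCl, 1 mM MgCl2 and 0.5 nM [35S]GTPγS, then 5 min more with 0.1–10 μM compound. Gαo was immunoprecipitated and bound radioactivity counted by scintillation.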

Compound	% DAMGO (0.1 μM) [%]
COc1ccc(CCC(O)CC2c3c(cc4c(c3OC)OCO4)CC[N+]2(C)C)cc1 (stereo not drawn) [Compound B0049]	102.8

Same assay, conditions: Series B; 0.1 μM compound; [35S]GTPγS binding to Gαo, striatal membranes

Compound	MOR agonist activity, percent [35S]GTPγS binding at the stated compound concentration [%]
COc1ccc(CCC(O)CC2c3c(cc4c(c3OC)OCO4)CC[N+]2(C)C)cc1 (stereo not drawn) [Compound B0049]	181.6

Same assay, conditions: Series B; 1 μM compound + 1 μM β-FNA

Compound	MOR agonist activity, percent [35S]GTPγS binding at the stated compound concentration [%]
COc1ccc(CCC(O)CC2c3c(cc4c(c3OC)OCO4)CC[N+]2(C)C)cc1 (stereo not drawn) [Compound B0049]	133.2

Same assay, conditions: Series B; 1 μM compound + β-FNA, relative to DAMGO + BFNA

Compound	% DAMGO + BFNA [%]
COc1ccc(CCC(O)CC2c3c(cc4c(c3OC)OCO4)CC[N+]2(C)C)cc1 (stereo not drawn) [Compound B0049]	506.5

Same assay, conditions: Series B; 1 μM compound, relative to DAMGO

Compound	% DAMGO (1 μM) [%]
COc1ccc(CCC(O)CC2c3c(cc4c(c3OC)OCO4)CC[N+]2(C)C)cc1 (stereo not drawn) [Compound B0049]	143.1

Same assay, conditions: Series B; 1 μM compound; [35S]GTPγS binding to Gαo, striatal membranes

Compound	MOR agonist activity, percent [35S]GTPγS binding at the stated compound concentration [%]
COc1ccc(CCC(O)CC2c3c(cc4c(c3OC)OCO4)CC[N+]2(C)C)cc1 (stereo not drawn) [Compound B0049]	364.0

Same assay, conditions: Series C-1; 0.1 μM compound, relative to DAMGO

Compound	% DAMGO (0.1 μM) [%]
COc1ccc(S(=O)(=O)N2CCCC3(C2)OCCN3S(=O)(=O)c2ccc(OC)cc2)cc1 (stereo not drawn) [Compound C0145M]	112.2
N#Cc1ccc(S(=O)(=O)N2CCC3(CC2)OCCN3S(=O)(=O)c2ccc(C#N)cc2)cc1 [Compound C0008]	41.4
CC(=O)c1ccc(S(=O)(=O)N2CCC3(CC2)NC(=O)C(Cc2cnc[nH]2)N3S(=O)(=O)c2ccc(C(C)=O)cc2)cc1 (stereo not drawn) [Compound C0084M]	97.3

Same assay, conditions: Series C-1; 0.1 μM compound; [35S]GTPγS binding to Gαo, striatal membranes

Compound	Concentration of FLNA-Binding Compound as Agonist 0.1 μM [%]
COc1ccc(S(=O)(=O)N2CCCC3(C2)OCCN3S(=O)(=O)c2ccc(OC)cc2)cc1 (stereo not drawn) [Compound C0145M]	193.0
N#Cc1ccc(S(=O)(=O)N2CCC3(CC2)OCCN3S(=O)(=O)c2ccc(C#N)cc2)cc1 [Compound C0008]	71.2
CC(=O)c1ccc(S(=O)(=O)N2CCC3(CC2)NC(=O)C(Cc2cnc[nH]2)N3S(=O)(=O)c2ccc(C(C)=O)cc2)cc1 (stereo not drawn) [Compound C0084M]	163.1

Same assay, conditions: Series C-1; 1 μM compound + 1 μM β-FNA

Compound	Concentration of FLNA-Binding Compound as Agonist 1 μM + BFNA [%]
COc1ccc(S(=O)(=O)N2CCCC3(C2)OCCN3S(=O)(=O)c2ccc(OC)cc2)cc1 (stereo not drawn) [Compound C0145M]	87.0
N#Cc1ccc(S(=O)(=O)N2CCC3(CC2)OCCN3S(=O)(=O)c2ccc(C#N)cc2)cc1 [Compound C0008]	2.8
CC(=O)c1ccc(S(=O)(=O)N2CCC3(CC2)NC(=O)C(Cc2cnc[nH]2)N3S(=O)(=O)c2ccc(C(C)=O)cc2)cc1 (stereo not drawn) [Compound C0084M]	133.2

Same assay, conditions: Series C-1; 1 μM compound + β-FNA, relative to DAMGO + BFNA

Compound	% DAMGO + BFNA [%]
COc1ccc(S(=O)(=O)N2CCCC3(C2)OCCN3S(=O)(=O)c2ccc(OC)cc2)cc1 (stereo not drawn) [Compound C0145M]	95.3
N#Cc1ccc(S(=O)(=O)N2CCC3(CC2)OCCN3S(=O)(=O)c2ccc(C#N)cc2)cc1 [Compound C0008]	4.4
CC(=O)c1ccc(S(=O)(=O)N2CCC3(CC2)NC(=O)C(Cc2cnc[nH]2)N3S(=O)(=O)c2ccc(C(C)=O)cc2)cc1 (stereo not drawn) [Compound C0084M]	280.4

Same assay, conditions: Series C-1; 1 μM compound, relative to DAMGO

Compound	% DAMGO (1 μM) [%]
COc1ccc(S(=O)(=O)N2CCCC3(C2)OCCN3S(=O)(=O)c2ccc(OC)cc2)cc1 (stereo not drawn) [Compound C0145M]	88.7
N#Cc1ccc(S(=O)(=O)N2CCC3(CC2)OCCN3S(=O)(=O)c2ccc(C#N)cc2)cc1 [Compound C0008]	72.9
CC(=O)c1ccc(S(=O)(=O)N2CCC3(CC2)NC(=O)C(Cc2cnc[nH]2)N3S(=O)(=O)c2ccc(C(C)=O)cc2)cc1 (stereo not drawn) [Compound C0084M]	114.9

Same assay, conditions: Series C-1; 1 μM compound; [35S]GTPγS binding to Gαo, striatal membranes

Compound	Concentration of FLNA-Binding Compound as Agonist 1 μM [%]
COc1ccc(S(=O)(=O)N2CCCC3(C2)OCCN3S(=O)(=O)c2ccc(OC)cc2)cc1 (stereo not drawn) [Compound C0145M]	289.2
N#Cc1ccc(S(=O)(=O)N2CCC3(CC2)OCCN3S(=O)(=O)c2ccc(C#N)cc2)cc1 [Compound C0008]	201.6
CC(=O)c1ccc(S(=O)(=O)N2CCC3(CC2)NC(=O)C(Cc2cnc[nH]2)N3S(=O)(=O)c2ccc(C(C)=O)cc2)cc1 (stereo not drawn) [Compound C0084M]	255.5

Same assay, conditions: Series C-2; 0.1 μM compound, relative to DAMGO

Compound	% DAMGO (0.1 μM) [%]
CCOC(=O)CN1CCC2(CC1)OCCN2S(=O)(=O)c1ccc(C(C)=O)cc1 [Compound C0099M]	93.8
COc1ccc(S(=O)(=O)N2CCOC23CCN(CC2CC2)CC3)cc1 [Compound C0090M]	137.7
CCN1CCC2(CC1)OCCN2S(=O)(=O)c1ccc(OC)cc1 [Compound C0089M]	136.3

Same assay, conditions: Series C-2; 0.1 μM compound; [35S]GTPγS binding to Gαo, striatal membranes

Compound	MOR agonist activity, percent [35S]GTPγS binding at the stated compound concentration [%]
CCOC(=O)CN1CCC2(CC1)OCCN2S(=O)(=O)c1ccc(C(C)=O)cc1 [Compound C0099M]	157.2
COc1ccc(S(=O)(=O)N2CCOC23CCN(CC2CC2)CC3)cc1 [Compound C0090M]	237.0
CCN1CCC2(CC1)OCCN2S(=O)(=O)c1ccc(OC)cc1 [Compound C0089M]	234.5

Same assay, conditions: Series C-2; 1 μM compound + 1 μM β-FNA

Compound	MOR agonist activity, percent [35S]GTPγS binding at the stated compound concentration [%]
CCOC(=O)CN1CCC2(CC1)OCCN2S(=O)(=O)c1ccc(C(C)=O)cc1 [Compound C0099M]	114.7
COc1ccc(S(=O)(=O)N2CCOC23CCN(CC2CC2)CC3)cc1 [Compound C0090M]	41.0
CCN1CCC2(CC1)OCCN2S(=O)(=O)c1ccc(OC)cc1 [Compound C0089M]	81.9

Same assay, conditions: Series C-2; 1 μM compound + β-FNA, relative to DAMGO + BFNA

Compound	% DAMGO + BFNA [%]
CCOC(=O)CN1CCC2(CC1)OCCN2S(=O)(=O)c1ccc(C(C)=O)cc1 [Compound C0099M]	241.5
COc1ccc(S(=O)(=O)N2CCOC23CCN(CC2CC2)CC3)cc1 [Compound C0090M]	118.8
CCN1CCC2(CC1)OCCN2S(=O)(=O)c1ccc(OC)cc1 [Compound C0089M]	237.4

Same assay, conditions: Series C-2; 1 μM compound, relative to DAMGO

Compound	% DAMGO (1 μM) [%]
CCOC(=O)CN1CCC2(CC1)OCCN2S(=O)(=O)c1ccc(C(C)=O)cc1 [Compound C0099M]	88.0
COc1ccc(S(=O)(=O)N2CCOC23CCN(CC2CC2)CC3)cc1 [Compound C0090M]	155.2
CCN1CCC2(CC1)OCCN2S(=O)(=O)c1ccc(OC)cc1 [Compound C0089M]	134.4

Same assay, conditions: Series C-2; 1 μM compound; [35S]GTPγS binding to Gαo, striatal membranes

Compound	MOR agonist activity, percent [35S]GTPγS binding at the stated compound concentration [%]
CCOC(=O)CN1CCC2(CC1)OCCN2S(=O)(=O)c1ccc(C(C)=O)cc1 [Compound C0099M]	195.7
COc1ccc(S(=O)(=O)N2CCOC23CCN(CC2CC2)CC3)cc1 [Compound C0090M]	341.0
CCN1CCC2(CC1)OCCN2S(=O)(=O)c1ccc(OC)cc1 [Compound C0089M]	295.3

Molecular target: FLNA pentapeptide of SEQ ID NO: 1 (Bn-VAKGL) (Homo sapiens, UniProt P21333)
Assay: FITC-NLX-based FLNA screening assay (inhibition of FITC-naloxone binding to Bn-VAKGL on streptavidin plates)
Conditions: FLNA-binding compound 0.01 μM; 10 nM FITC-NLX; read-out: Percent Binding Inhibition

Compound	inhibition at 0.01 µM [%]
COc1ccc(S(=O)(=O)N2CCCC3(C2)OCCN3S(=O)(=O)c2ccc(OC)cc2)cc1 (stereo not drawn) [Compound C0145M]	45.1
CCOC(=O)CN1CCC2(CC1)OCCN2S(=O)(=O)c1ccc(C(C)=O)cc1 [Compound C0099M]	46.9
N#Cc1ccc(S(=O)(=O)N2CCC3(CC2)OCCN3S(=O)(=O)c2ccc(C#N)cc2)cc1 [Compound C0008]	42.2
CCN1CCC2(CC1)OCCN2S(=O)(=O)c1ccc(OC)cc1 [Compound C0089M]	40.7

Same assay, conditions: FLNA-binding compound 0.1 μM; 10 nM FITC-NLX; read-out: Percent Binding Inhibition

Compound	inhibition at 0.1 µM [%]
COc1ccc(S(=O)(=O)N2CCCC3(C2)OCCN3S(=O)(=O)c2ccc(OC)cc2)cc1 (stereo not drawn) [Compound C0145M]	53.7
CCOC(=O)CN1CCC2(CC1)OCCN2S(=O)(=O)c1ccc(C(C)=O)cc1 [Compound C0099M]	53.3
N#Cc1ccc(S(=O)(=O)N2CCC3(CC2)OCCN3S(=O)(=O)c2ccc(C#N)cc2)cc1 [Compound C0008]	52.3
CCN1CCC2(CC1)OCCN2S(=O)(=O)c1ccc(OC)cc1 [Compound C0089M]	46.1

Same assay, conditions: FLNA-binding compound 1 μM; 10 nM FITC-NLX; read-out: Percent Binding Inhibition

Compound	inhibition at 1 µM [%]
COc1ccc(S(=O)(=O)N2CCCC3(C2)OCCN3S(=O)(=O)c2ccc(OC)cc2)cc1 (stereo not drawn) [Compound C0145M]	58.3
CCOC(=O)CN1CCC2(CC1)OCCN2S(=O)(=O)c1ccc(C(C)=O)cc1 [Compound C0099M]	56
N#Cc1ccc(S(=O)(=O)N2CCC3(CC2)OCCN3S(=O)(=O)c2ccc(C#N)cc2)cc1 [Compound C0008]	54.4
CCN1CCC2(CC1)OCCN2S(=O)(=O)c1ccc(OC)cc1 [Compound C0089M]	51.2

Same assay, conditions: read-out: Percent Binding Inhibition, FLNA-binding compound 0.01 μM; 10 nM FITC-NLX

Compound	inhibition at 0.01 µM [%]
COc1ccc(S(=O)(=O)N2CCOC23CCN(CC2CC2)CC3)cc1 [Compound C0090M]	42.5
COc1ccc(CCC(O)CC2c3c(cc4c(c3OC)OCO4)CC[N+]2(C)C)cc1 (stereo not drawn) [Compound B0049]	32.2
CC(=O)c1ccc(S(=O)(=O)N2CCC3(CC2)NC(=O)C(Cc2cnc[nH]2)N3S(=O)(=O)c2ccc(C(C)=O)cc2)cc1 (stereo not drawn) [Compound C0084M]	47.2

Same assay, conditions: read-out: Percent Binding Inhibition, FLNA-binding compound 0.1 μM; 10 nM FITC-NLX

Compound	inhibition at 0.1 µM [%]
COc1ccc(S(=O)(=O)N2CCOC23CCN(CC2CC2)CC3)cc1 [Compound C0090M]	52.5
COc1ccc(CCC(O)CC2c3c(cc4c(c3OC)OCO4)CC[N+]2(C)C)cc1 (stereo not drawn) [Compound B0049]	40.1
CC(=O)c1ccc(S(=O)(=O)N2CCC3(CC2)NC(=O)C(Cc2cnc[nH]2)N3S(=O)(=O)c2ccc(C(C)=O)cc2)cc1 (stereo not drawn) [Compound C0084M]	53.7

Same assay, conditions: read-out: Percent Binding Inhibition, FLNA-binding compound 1 μM; 10 nM FITC-NLX

Compound	inhibition at 1 µM [%]
COc1ccc(S(=O)(=O)N2CCOC23CCN(CC2CC2)CC3)cc1 [Compound C0090M]	55.8
COc1ccc(CCC(O)CC2c3c(cc4c(c3OC)OCO4)CC[N+]2(C)C)cc1 (stereo not drawn) [Compound B0049]	47.1
CC(=O)c1ccc(S(=O)(=O)N2CCC3(CC2)NC(=O)C(Cc2cnc[nH]2)N3S(=O)(=O)c2ccc(C(C)=O)cc2)cc1 (stereo not drawn) [Compound C0084M]	55.9
